Laboratory results published in ChEMBL document CHEMBL1125691, “Escherichia coli mediated biosynthesis and in vitro anti-HIV activity of lipophilic 6-halo-2',3'-dideoxypurine nucleosides” (J Med Chem, 1991).

Assays:
ATH-8 cell line [1] = experiment: Concentration required to suppress the growth of target ATH8 cells; format: functional; conditions: Homo sapiens, read-out: CD50 (the source's name)
ATH-8 cell line [2] = experiment: Concentration required to inhibit the cytopathic effect of HIV-1 on ATH8 cells; format: functional, Human immunodeficiency virus 1; conditions: Homo sapiens, read-out: ED50 (the source's name)
ATH-8 cell line [3] = experiment: In Vitro evaluation for the anti-viral activity Drug concentrations required to inhibit the cytopathic effect of HIV-2 on ATH8 cells; format: functional; conditions: Homo sapiens, read-out: ED50 (the source's name)
[4] = Compound was evaluated for the partition coefficient measured for 1-octanol and 0.01 M potassium phosphate buffer (pH 7.0); format: physicochemical; conditions: octanol/water
ATH-8 cell line [5] = experiment: (§1) ratio of CD50/ED50; format: functional
ATH-8 cell line [6] = experiment: In vitro evaluation for the anti-viral activity by taking the drug concentrations required to suppress the growth of target ATH8 cells; format: functional; conditions: Homo sapiens, read-out: CD50 (the source's name)
ATH-8 cell line [7] = experiment: In vitro evaluation for the anti-viral activity Drug concentrations required to inhibit the cytopathic effect of HIV-1on ATH8 cells; format: functional; conditions: Homo sapiens, read-out: ED50 (the source's name)
ATH-8 cell line [8] = experiment: Ratio of CD50/ED50; format: functional
[9] = as §1; format: functional

| SMILES | CC50 (ATH-8 cell line [1]) [µM] | EC50 (ATH-8 cell line [2]) [µM] | further results |
| --- | --- | --- | --- |
| OC[C@@H]1CC[C@H](n2cnc3cncnc32)O1 | > 200 | > 200 |  |
| OC[C@@H]1CC[C@H](n2cnc3c(Cl)ncnc32)O1 | 164 | 6.9 | EC50 (ATH-8 cell line [3]): 42 µM |
| O=c1[nH]cnc2c1ncn2[C@H]1CC[C@@H](CO)O1 [DIDANOSINE] | > 900 | 5.6 | Partition coefficient [4]: 0.05; Ratio (ATH-8 cell line [5]): >161 |
| Nc1nc2c(ncn2[C@H]2CC[C@@H](CO)O2)c(=O)[nH]1 | > 900 | 3.5 | Partition coefficient [4]: 0.08; Ratio (ATH-8 cell line [5]): >257 |
| Nc1ncc2ncn([C@H]3CC[C@@H](CO)O3)c2n1 | > 200 | > 200 |  |
| Nc1nc(S)c2ncn(C3CCC(CO)O3)c2n1 (configuration not stated) |  |  | CC50 (ATH-8 cell line [6]): 9 µM; EC50 (ATH-8 cell line [7]): > 200 µM; Ratio (ATH-8 cell line [8]): <0.1 |
| Nc1nc(I)c2ncn(C3CCC(CO)O3)c2n1 (configuration not stated) | 210 | 7.9 |  |
| OCC1CCC(n2cnc3c(Br)ncnc32)O1 (configuration not stated) | 96 | 7.7 |  |
| OC[C@@H]1CC[C@H](n2cnc3c(F)ncnc32)O1 | 190 | 2.8 | EC50 (ATH-8 cell line [3]): 16 µM |
| Nc1nc(F)c2ncn([C@H]3CC[C@@H](CO)O3)c2n1 | > 300 | 2.4 | EC50 (ATH-8 cell line [3]): 14.5 µM |
| OC[C@@H]1CC[C@H](n2cnc3c(Cl)nc(Cl)nc32)O1 | 36 | > 200 | Ratio [9]: < 0.2 |
| Nc1nc(Br)c2ncn(C3CCC(CO)O3)c2n1 (configuration not stated) | > 300 | 6.9 |  |
| Cc1cn([C@H]2C[C@H](N=[N+]=[N-])[C@@H](CO)O2)c(=O)[nH]c1=O [ZIDOVUDINE] | > 20 | 5 | Partition coefficient [4]: 1.12; Ratio (ATH-8 cell line [8]): 4 |
| OCC1CCC(n2cnc3c(I)ncnc32)O1 (configuration not stated) | 86 | 46 |  |
| Nc1nc(Cl)c2ncn([C@H]3CC[C@@H](CO)O3)c2n1 | > 300 | 5.5 | EC50 (ATH-8 cell line [3]): 12.5 µM |
| OCC1CCC(n2cnc3c(S)ncnc32)O1 (configuration not stated) | 150 | > 200 | Ratio (ATH-8 cell line [5]): <0.8 |
| O=c1[nH]c(=O)c2ncn([C@H]3CC[C@@H](CO)O3)c2[nH]1 | > 200 | > 200 |  |
